Laboratory results taken from US20190099383A1, “Transdermal Delivery of Selexipag Metabolite” (Samos Pharmaceuticals, Inc., priority 2017, published 2019).
Read-outs that look alike come from different tables or passages of the source.

Tests used:
[1] = In vitro unenhanced skin flux, Franz diffusion cells; assay type: in vitro ADME, human; conditions: 168 hour period, saturated solution in 80/20% ethanol/water, no enhancers
Method: All in vitro skin permeation studies are conducted using the PermeGear Membrane Transport System. […] Skin flux studies are run for a period of 168 hours. […] The receiver compartment is refilled with fresh receiver medium.

[2] = cited from earlier work
carboxylesterases = conditions: cited from earlier work
[3] = headache, diarrhea, pain in the jaw, nausea and myalgia; cited from earlier work
[4] = Saturation concentration of the drug in the receptor medium; assay type: physicochemical; conditions: pH 7.4 water with 0.44 mg/ml OLETH 20
[5] = Formulation B enhancer system, 2, 4, 8, 12 and 24 hour time points (FIG. 1)
Method: One skin donor and three diffusion cells per formulation were used in these in vitro skin permeation experiments. Split thickness dermatomed (approximately at 375 μm) human cadaver skin was used to determine the permeation rate of the selexipag metabolite ACT 333679 in vitro. All in vitro skin permeation studies were conducted using the PermeGear Membrane Transport System (PermeGear, Inc., Hellertown, Pa.). Each Membrane Transport System consists of vertical, jacketed (37° C.±0.5° C.) Franz diffusion cells with magnetic stirrer and 1.7 cm^2 diffusion area.
Skin flux studies were run for a period of 48 hours. At predetermined intervals (3, 24 and 48 hours) after starting the experiment, the entire contents of the receiver compartment were collected for determination of the ACT 333679 concentration by HPLC. The receiver compartment was refilled with fresh receiver medium. The receiver medium was pH 7.4 water with 0.44 mg/ml of OLETH 20 (polyethylene glycol ether of oleyl alcohol) with the saturation concentration of the drug in the receptor medium being 0.23 mg/ml or 2 mg total in the receptor phase. […]
One skin donor and three diffusion cells per formulation were used in these in vitro skin permeation experiments. […] Samples in the receptor phase were obtained at the 2, 4, 8, 12 and 24 hour intervals and the amount of selexipag or ACT333679 was determined by HPLC.

prostacyclin IP receptor = prostacyclin IP receptor (Homo sapiens, UniProt P43119); conditions: ACT 333679 versus selexipag; cited from earlier work
[6] = rat; cited from earlier work

Chain of prostacyclin IP receptor (P43119 whole entry): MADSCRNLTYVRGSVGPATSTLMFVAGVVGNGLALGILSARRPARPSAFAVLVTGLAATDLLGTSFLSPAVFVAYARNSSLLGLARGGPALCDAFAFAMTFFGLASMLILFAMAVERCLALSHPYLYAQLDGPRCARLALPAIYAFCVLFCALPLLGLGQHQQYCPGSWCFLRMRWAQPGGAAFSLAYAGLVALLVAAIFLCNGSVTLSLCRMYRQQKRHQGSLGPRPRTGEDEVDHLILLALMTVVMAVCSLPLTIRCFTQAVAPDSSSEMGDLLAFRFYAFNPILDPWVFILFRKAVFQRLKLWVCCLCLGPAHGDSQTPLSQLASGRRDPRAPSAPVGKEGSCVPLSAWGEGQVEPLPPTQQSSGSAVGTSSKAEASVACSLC

Row | Structure (SMILES) | average flux [1] | absorption ([2]; oral) [%] | metabolism of selexipag to ACT 333679 (carboxylesterases; carboxylases present in human plasma) | metabolism of selexipag to ACT 333679 (carboxylesterases; human hepatic microsomes) | difference in incidence of side effects between selexipag and placebo [3] | saturation amount, total in the receptor phase [4] [mg] | saturation concentration of the drug in the receptor medium [4] [mg/mL] | permeation through skin compared with selexipag [5] | potency relative to selexipag (prostacyclin IP receptor) | oral bioavailability [6] [%] | effect of presence of food on AUC ([2]; presence of food) [%]
1 | CC(C)N(CCCCOCC(=O)NS(C)(=O)=O)c1cnc(-c2ccccc2)c(-c2ccccc2)n1 [selexipag] | 1.2 micrograms per square centimeter per hour | ~60 | do not metabolize selexipag to ACT 333679 | metabolized to ACT 333679 from hepatic microsomes | higher than 10% |  |  |  |  |  | 
2 | CC(C)N(CCCCOCC(=O)O)c1cnc(-c2ccccc2)c(-c2ccccc2)n1 [ACT 333679] | 2.9 micrograms per square centimeter per hour |  |  |  |  | 2 | 0.23 | higher than that of selexipag | at least 16 times | 57 | 27
